Literature values as cited in publication PMC9890135 (Molecular Cancer Therapeutics, 2022).

Conditions: cited from earlier work

COc1cc2nccc(Oc3ccc(NC(=O)C4(C(=O)Nc5ccc(F)cc5)CC4)cc3)c2cc1OC [Cabozantinib, cabozantinib]
plasma half-life: approximately 99 hours
